From ChEMBL document CHEMBL3046838, “In vitro and in silico exploration of IL-2 inhibition by small drug-like molecules” (Med Chem Res, 2013) come the findings set out here.

In brackets after ≈: the same amount, converted by molar mass.

Experiment [1] relates to PBMC. The experiment in a line: Immunosuppressive activity in human PBMC assessed as inhibition of PHA/PMA-induced IL-2 production after 18 hrs by ELISA. The class given is functional, cell-based.
In experiment [2] the test system is Blood. The experiment in a line: Inhibition of ROS production in human whole blood after 30 mins by luminol-based chemiluminescence assay. The class given is functional, tissue-based. The conditions noted are these: 0.5 h.
The test system of experiment [3] is PBMC. The experiment in a line: Immunosuppressive activity in human PBMC assessed as inhibition of PHA-induced T cell proliferation after 72 hrs by [3H]thymidine incorporation assay. The class given is functional, cell-based. In general terms: Dividing cells build labelled thymidine or BrdU into new DNA.
The test system of experiment [4] is CC-1. Put plainly: Cytotoxicity against rat CC1 after 48 hrs by MTT assay. The class given is cell-based. The following applies: CC-1, 48 h.
Experiment [5] relates to 3T3-L1. Put plainly: Cytotoxicity against mouse 3T3L1 after 48 hrs by MTT assay. The class given is cell-based. The conditions noted are these: 3T3-L1, 48 h. Background: Tetrazolium assays rely on reduction of a dye to a coloured formazan, in cell work by metabolically active cells.
Experiment [6] concerns the target T1, Interleukin-2 receptor subunit alpha (Homo sapiens, UniProt P01589).
T1 sequence (P01589 whole entry): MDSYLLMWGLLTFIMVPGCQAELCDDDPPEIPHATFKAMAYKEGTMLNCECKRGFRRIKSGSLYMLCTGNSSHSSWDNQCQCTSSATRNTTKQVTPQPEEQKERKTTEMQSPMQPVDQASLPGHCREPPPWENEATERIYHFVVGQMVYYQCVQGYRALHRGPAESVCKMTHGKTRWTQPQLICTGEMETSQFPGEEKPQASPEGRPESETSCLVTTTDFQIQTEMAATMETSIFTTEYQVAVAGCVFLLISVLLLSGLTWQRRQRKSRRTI
The experiment in a line: Competitive inhibition of IL2 receptor alpha (unknown origin).

Turning to `CC1CC(=O)Nc2cc(N)ccc2N1` (configuration not stated), the concentration for half-maximal inhibition (IC50) is 13 µg/mL (≈ 68 µM) in experiment [1], 4.5 µg/mL (≈ 23.5 µM) in experiment [2] and 4.4 µg/mL (≈ 23 µM) in experiment [3].
In experiment [2], `CC1(C)CC(=O)Nc2cc([N+](=O)[O-])ccc2N1` displayed an IC50 of 12.4 µg/mL (≈ 52.7 µM).
With `CC1C/C(=N\NC(=O)Nc2ccccc2)Nc2cc([N+](=O)[O-])ccc2N1` (configuration not stated), the IC50 in experiment [3] was 25.5 µg/mL (≈ 72 µM).
Take `Nc1ccc(C(=O)/C=C/c2cccc(Cl)c2)cc1`: the IC50 in experiment [4] was 16.7 µg/mL (≈ 64.8 µM); in experiment [1] it was 2.5 µg/mL (≈ 9.7 µM); in experiment [5] it was 9.5 µg/mL (≈ 36.9 µM); in experiment [2], 24.4 µg/mL (≈ 94.7 µM); in experiment [3], < 0.5 µg/mL.
As for `Cc1ccc(/C=C/C(=O)c2ccc(N)cc2)cc1`, the figures for the half-inhibitory concentration (IC50) in experiment [1], in experiment [2] and in experiment [3] were 15.1 µg/mL (≈ 63.6 µM), 12.4 µg/mL (≈ 52.3 µM) and 3.2 µg/mL (≈ 13.5 µM), respectively.
For `O=C(/C=C/c1ccccc1)c1cccc(O)c1` the same measures were 14.2 µg/mL (≈ 63.3 µM), 4.8 µg/mL (≈ 21.4 µM) and 8.2 µg/mL (≈ 36.6 µM).
As to `Cc1ccc(/C=C/C(=O)c2ccccc2)cc1`, the values for the IC50 in experiment [1], in experiment [2] and in experiment [3] were 15.6 µg/mL (≈ 70.2 µM), 31 µg/mL (≈ 139 µM) and 7.8 µg/mL (≈ 35.1 µM), respectively.
`COC(=O)[C@H](Cc1ccc(C#Cc2ccccc2)cc1)NC(=O)C[C@H]1CCCN(C(=N)N)C1`: the 50% inhibitory concentration (IC50) in experiment [6] was 6 µM.
For `O=C(/C=C/c1ccccc1)c1ccccc1O` [2'-HYDROXYCHALCONE], the concentration for half-maximal inhibition (IC50) in experiment [1] amounted to 19.7 µg/mL (≈ 87.8 µM); in experiment [3] it was 11 µg/mL (≈ 49.1 µM).

For orientation: IC50 means the concentration that gives 50% inhibition.
